Results on 15 compounds are retold here after patent publication US5998414A, “Troponyl piperazines as dopamine D4 receptor ligands” (priority 1997, dated 1999).

Molecules are shown by their SMILES.

In experiment [1] the target is human D2 receptor (short isoform) (Homo sapiens, UniProt P14416). The experiment in a line: D2 receptor displacement binding assay (3H-spiperone, membrane homogenate of stably transfected GH4 C1 cells), used for D2/D4 selectivity. As to conditions: ratio D2/D4, 3H-spiperone displacement. As for the experimental part: (§1) The potency of the test compound to reduce ^3 H-spiperone binding directly correlated to its binding affinity for the receptor.
GH4 C1 (rat pituitary) cells stably transfected with the human D2 receptor (short isoform) were grown in HAM'S F10 media in NUNC cell factories for 5 days. 100 μM ZnSO4 was added to the cells (the D2 promoter being zinc inducible). After 16 hours, fresh media was added to allow the cells to recover for 24 hours. The cells were harvested using versine and then centrifuged in a Sorval centrifuge for 10 minutes, at 5000 rpm (GS3 rotor). Pellets were quickly frozen in liquid nitrogen and stored at -80° C. until used in the binding assays. When used in the assay, cells were thawed on ice for 20 minutes. […] The receptor protein concentration was determined using the Pierce BCA assay.
(§2) Total Spiperone Binding Assay
(§3) The plates were vortexed and incubated at room temperature for 90 minutes. The binding reaction was stopped by filtering using a Packard Harvester. The samples were filtered under vacuum over glass fibre filter plates (Whatman GF/B) presoaked for 2 hours in 0.3% polyethylenimine (PEI) in 50 mM Tris buffer (pH 7.4). The filters were then washed 6 times with 7 ml ice cold 50 mM Tris buffer (pH 7.4). The filter plates were dried overnight and 35 μl of Microscint-O (Packard) was added. The plates were sealed and counted in the Packard Top Count (3 minutes per well).
Non-specific Binding Assay for D2
This assay employed the same procedures as the non-specific binding assay for D4 with the exception that 2 μM (final conc.) of (-) sulpiride (Research Chemicals Inc.) was used in place of dopamine.
(§4) Displacement Binding Assay
(§5) The incubation was started by the addition, in 96-well polypropylene plates (1 mL per well), of 100 μl (50 μg protein) membrane homogenate to a solution of 200 μl incubation buffer, 100 μl ([…].) ^3 H-spiperone (90 Ci/mmol, Amersham, diluted in borosilicate glass vial) and 100 μl of test compound that was prepared from 1 mM stock dissolved in DMSO and stored at -20° C. in polypropylene cryogenic storage vials until dilution in incubation buffer in 96-well polypropylene plates. The plates were vortexed and incubated at room temperature for 90 minutes at which time the binding reaction was stopped by filtering. The filters were washed and counted using the same procedure as in the total binding assay described above to give the displacement binding value (BD).
(§6) IC50 was determined from an inhibition response curve, logit-log plot of %B/B0 vs concentration of test compound.
(§7) Ki was calculated by the Cheng and Prustoff transformation: […]
(§8) where [L] is the concentration of ^3 H-spiperone used in the assay and KD is the dissociation constant of ^3 H-spiperone determined independently under the same binding conditions.

For experiment [2], the target named is T1, human D4 receptor (D4.2 sub-type) (Homo sapiens, UniProt P21917, DEL265-296).
T1 construct: expressed in transfected cells; host or cells: HEK 298 (human embryonic kidney) cells (so in the source); membrane homogenate
T1 sequence (P21917 with tags, fused parts or gaps DEL265-296): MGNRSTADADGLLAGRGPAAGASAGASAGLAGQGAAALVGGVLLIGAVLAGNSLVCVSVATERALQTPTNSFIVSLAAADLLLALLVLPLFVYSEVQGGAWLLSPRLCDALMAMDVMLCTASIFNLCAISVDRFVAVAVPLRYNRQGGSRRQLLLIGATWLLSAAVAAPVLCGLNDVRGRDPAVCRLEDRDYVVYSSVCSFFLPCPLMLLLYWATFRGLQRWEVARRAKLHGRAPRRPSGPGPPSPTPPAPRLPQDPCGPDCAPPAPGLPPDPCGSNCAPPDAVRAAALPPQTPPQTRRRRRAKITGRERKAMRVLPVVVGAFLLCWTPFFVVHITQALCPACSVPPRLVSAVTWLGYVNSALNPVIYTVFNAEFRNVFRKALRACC
The experiment in a line: D4 receptor displacement binding assay (3H-spiperone, membrane homogenate of stably transfected HEK 298 cells). To be noted: 3H-spiperone displacement, human D4.2, HEK cells; Cheng and Prustoff transformation of IC50; read-out: D4 affinity Ki. The procedure: as §1
The cells were then centrifuged in a Sorval centrifuge for 10 min, 5000 rpm (GS3 rotor) and the pellets quickly frozen in liquid nitrogen and stored at -80° C. until used in binding assay. When used in the assay, cells were thawed on ice for 20 min and then 10 ml of incubation buffer (50 mM Tris, 1 mM EDTA, 4 mM MgCl2, 5 mM KCl, 1.5 mM CaCl2, 120 mM NaCl, pH 7.4) was added. […] Concentration of receptor protein was determined using the Pierce BCA assay.
as §2, §3
Non-specific Binding Assay for D4
The plates were vortexed and incubated at room temperature for 90 minutes at which time the binding reaction was stopped by filtering. The filters were washed and counted using the same procedure as in the total binding assay described above to give the non-specific binding value (NSB).
as §4, §5, §6, §7, §8

In a further experiment the target is T2, human D4.2 receptors (Homo sapiens, UniProt P21917, DEL265-296).
T2 construct: expressed in transfected cells; host or cells: CHO Pro 5 cells
T2 sequence (P21917 with tags, fused parts or gaps DEL265-296): T1 sequence (P21917 with tags, fused parts or gaps DEL265-296)
In words: Functional antagonist assay: reversal of dopamine inhibition of forskolin-stimulated adenyl cyclase (cAMP) in CHO Pro 5 cells. The format is cell-based. To be noted: dopamine and forskolin both 10 μM, read-out: % reversal of dopamine effect; for inhibition at 1 µM: 1 μM test compound; for inhibition at 10 µM: 10 μM test compound. The procedure: The D4 receptor responds to dopamine and other agonists by reducing adenyl cyclase mediated production of cyclic AMP. Particular test compounds were assayed for their ability to reverse dopamine inhibition of adenyl cyclase by the following procedure. Forskolin was used to elevate the basal adenyl cyclase activity.
CHO Pro 5 cells stably expressing human D4.2 receptors were plated in 6 well plates in DMEM (Dulbecco's Modified Eagle Medium)/F12(Nutrient Mixture F12 (Ham)) media with 10% FCS (fetal calf serum) and G418 (Geneticen Disulfate), and incubated at 37° C. in a CO2 incubator. The cells were allowed to grow to about 70% confluence before use in the assay.
The culture media of each well was removed, and the wells were washed once with serum free media (SFM) (DMEM/F12) media. Then 2 mL of fresh SFM+IBMX media (SFM with 0.5 mM IBMX, 3-isobutyl-1-methylxanthine, 0.1% ascorbic acid and 10 μM pargyline) was added to each well and then incubated at 37° C. for 10 minutes in a CO2 incubator. […] Basal adenyl cyclase activity was determined from wells with only SFM+IBMX media added.
The cells were then incubated at 37° C. for 30 minutes in a CO2 incubator. Following incubation the media was removed from each well and then washed once with 1 mL of PBS (phosphate buffered saline). […] The cells from each well were then scraped and transferred into individual Eppendorf tubes. The tubes were centrifuged for 5 min at 4° C., and the supernatants were transferred to new Eppendorf tubes.
Total inhibition (I0) of forskolin-stimulated adenyl cyclase activity by dopamine was determined as the difference in concentration of cAMP in the forskolin-treated cells (Cf) and dopamine-forskolin treated cells (Cd).
Net inhibition (I) of forskolin-stimulated adenyl cyclase activity by dopamine in the presence of an antagonist was determined as the difference in concentration of cAMP in the forskolin-treated cells (Cf) and test compound, dopamine and forskolin treated cells (C).
The ability of the test compounds to reverse the dopamine inhibition (% reversal, % R) was determined by the formula: […]

The next experiment concerns D2 receptor. As to conditions: background, marketed products; cited from earlier work.
The target in another experiment is D4 receptor. To be noted: background, marketed products; cited from earlier work.

Sequence of human D2 receptor (short isoform) (P14416 with tags, fused parts or gaps DEL242-270): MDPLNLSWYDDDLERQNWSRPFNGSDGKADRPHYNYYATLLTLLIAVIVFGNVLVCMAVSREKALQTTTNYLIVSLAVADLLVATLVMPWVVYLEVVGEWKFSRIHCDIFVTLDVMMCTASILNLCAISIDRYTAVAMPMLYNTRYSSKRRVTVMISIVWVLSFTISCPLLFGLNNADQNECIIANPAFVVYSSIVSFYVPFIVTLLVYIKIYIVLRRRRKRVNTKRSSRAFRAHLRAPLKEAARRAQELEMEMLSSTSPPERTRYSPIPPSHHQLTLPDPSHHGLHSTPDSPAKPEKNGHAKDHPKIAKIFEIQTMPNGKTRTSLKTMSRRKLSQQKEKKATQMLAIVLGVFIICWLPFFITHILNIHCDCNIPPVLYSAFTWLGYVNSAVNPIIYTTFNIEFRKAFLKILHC

In general, Ki refers to the dissociation constant of the complex between target and ligand, obtained from inhibition or displacement. Regarding `O=c1cccccc1N1CCN(Cc2ccc(OC(F)(F)F)cc2)CC1` [2-[4-(4-trifluoromethoxybenzyl)-1-piperazinyl]-2,4,6-cycloheptatriene-1-one], in experiment [1], the D2/D4 selectivity was determined as 367. For the same compound, the Ki in experiment [2] is 2.18 nM.

In the case of `O=c1cccccc1N1CCN(Cc2ccc(Br)cc2)CC1` [2-[4-(4-bromobenzyl)-1-piperazinyl]-2,4,6-cycloheptatriene-1-one], the D2/D4 selectivity in experiment [1] is 935. In addition, the Ki in experiment [2] was determined as 0.82 nM.

For the compound `O=c1c(Br)ccccc1N1CCN(Cc2ccc3c(c2)OCO3)CC1` [7-bromo-2-(4-piperonyl-1-piperazinyl)-2,4,6-cycloheptatriene-1-one], the D2/D4 selectivity in experiment [1] is recorded as 104. Besides, the Ki in experiment [2] stood at 0.226 nM.

With `CCCCCCN1CCN(c2cccccc2=O)CC1` [2-(4-hexyl-1-piperazinyl)-2,4,6-cycloheptatriene-1-one], on human D4.2 receptors, the inhibition at 1 µM turned out to be 45% and the inhibition at 10 µM came out at 50%. In addition, the D2/D4 selectivity in experiment [1] is recorded as 23. In experiment [2], the Ki came to 33.3 nM.

Regarding `N#Cc1ccc(CN2CCN(c3cccccc3=O)CC2)cc1` [2-[4-(4-cyanobenzyl)-1-piperazinyl]-2,4,6-cycloheptatriene-1-one], in experiment [1], the D2/D4 selectivity is 169. In experiment [2], the inhibition constant (Ki) is 29.5 nM.

Take `O=c1cccccc1N1CCN(Cc2ccc3ccccc3c2)CC1`: in experiment [1], the D2/D4 selectivity was 321. Besides, the Ki in experiment [2] worked out at 2.24 nM.

In the case of `O=c1c(-c2cccs2)ccccc1N1CCN(Cc2ccc3c(c2)OCO3)CC1` [2-(4-Piperonyl-1-piperazinyl)7-thien2-yl-2,4,6-cycloheptatriene-1-one], the D2/D4 selectivity in experiment [1] stood at 34. Further, the inhibition constant (Ki) in experiment [2] stood at 11.9 nM.

In the case of `Cc1ccc(CN2CCN(c3cccccc3=O)CC2)cc1` [2-[4-(4-methylbenzyl)-1-piperazinyl]-2,4,6-cycloheptatriene-1-one], the D2/D4 selectivity in experiment [1] was found to be 443. Further, the Ki in experiment [2] was 1.46 nM.

Turning to `CN1CCN(C2=Nc3cc(Cl)ccc3Oc3ccccc32)CC1` [isoloxapine], the “preference for binding the D4 receptor relative to the D2 receptor” value with D2 receptor was “about 10 fold”. Moreover, the Ki at D4 receptor was approximately 20 nM.

In the case of `O=c1cccccc1N1CCN(Cc2ccc([N+](=O)[O-])cc2)CC1` [2-[4-(4-nitrobenzyl)-1-piperazinyl]-2,4,6-cycloheptatriene-1-one], the D2/D4 selectivity in experiment [1] worked out at 1014. Further, the Ki in experiment [2] was 6.67 nM.

For the compound `O=c1cccccc1N1CCN(Cc2ccc(C(F)(F)F)cc2)CC1` [2-[4-(4-trifluoromethylbenzyl)-1-piperazinyl]-2,4,6-cycloheptatriene-1-one], in experiment [1], the D2/D4 selectivity turned out to be 598. Moreover, in experiment [2], the Ki turned out to be 4.22 nM.

In the case of `O=c1cccccc1N1CCN(Cc2cccc(Br)c2)CC1` [2-[4-(3-bromobenzyl)-1-piperazinyl]-2,4,6-cycloheptatriene-1-one], in experiment [1], the D2/D4 selectivity is given as 53. Besides, the Ki in experiment [2] came to 9.58 nM.

Take `O=c1cccccc1N1CCN(Cc2ccc3c(c2)OCO3)CC1` [2-(4-Piperonyl-1-piperazinyl)-2,4,6-cycloheptatriene-1-one]: at human D4.2 receptors, the inhibition at 1 µM was 32% and the inhibition at 10 µM was determined as 65%. The D2/D4 selectivity in experiment [1] stood at 154. For the same compound, in experiment [2], the Ki was determined as 7.15 nM.

Take `O=c1cccccc1N1CCN(Cc2cccc(C(F)(F)F)c2)CC1` [2-[4-(3-trifluoromethylbenzyl)-1-piperazinyl]-2,4,6-cycloheptatriene-1-one]: the D2/D4 selectivity in experiment [1] is recorded as 28. Further, the Ki in experiment [2] stood at 21.5 nM.

As to `COc1cccc(CN2CCN(c3cccccc3=O)CC2)c1` [2-[4-(3-Methoxybenzyl)-1-piperazinyl]-2,4,6-cycloheptatriene-1-one], the D2/D4 selectivity in experiment [1] turned out to be 137. Further, in experiment [2], the Ki amounted to 19.2 nM.
